In patent US6989371B1, “Bombesin analogs for treatment of cancer” (Dabur Research Foundation, priority 1996, dated 2006):
Non-standard residues stand in square brackets, D forms with d. Residues, ends and D or L forms follow the SMILES beside them. *: point of attachment. Octanoyl = CCCCCCCC(=O)*; Aib = CC(C)(N)C(=O)O; Butyryl = CCCC(=O)*

What was measured:
Test in all cases: MTT cytotoxicity assay, 48 hours (Example 14)
HBL 100 (Breast) = format: cell-based, human
Protocol: (§1) The cytotoxic effect of peptide sequences SEQ ID NO: 9, SEQ ID NO: 10, SEQ ID NO: 11 and SEQ ID NO: 12, were studied by MTT assay which is based on the principle of uptake of MTT[3-[4,5-dimethylthiazol-2-yl]-2,5-diphenyl tetrazolium bromide], a tetrazolium salt by the metabolically active cells where it is metabolized by active mitochondria into a blue colored formazan product which can be read spectrophotometrically. Tumor cells KB (oral squamous). HuTu80 (Stomach), PTC and SW620 (colon), U87MG (Glioblastoma), HBL 100. (Breast), HeP2 (laryngeal) and L132 (Lung) were incubated with the peptide analogs for 48 hours at 37° C. in a 96-well culture plate, followed by the addition of 100 μl MTT and further incubation of 1 hour. The formazon crystals formed inside the cells were dissolved with a detergent comprising 10% Sodium dodecyl sulfate and 0.01 N HCl and optical density read on a multiscan ELISA reader. The optical density was directly proportional to the number of proliferating and metabolically active cells.

SW620 (colon) = format: cell-based, human
Protocol: as §1

KB (oral squamous) = format: cell-based, human
Protocol: as §1

HuTu80 (Stomach) = format: cell-based, human
Protocol: as §1

PTC (colon) = format: cell-based, human
Protocol: as §1

HeP2 (laryngeal) = format: cell-based
Protocol: as §1

L132 (Lung) = format: cell-based
Protocol: as §1

U87MG (Glioblastoma) = format: cell-based
Protocol: as §1

What does the source list for `CCCC(=O)N[C@H](Cc1ccccc1)C(=O)N[C@@H](CCC(N)=O)C(=O)N[C@@H](Cc1c[nH]c2ccccc12)C(=O)N[C@@H](C)C(=O)N[C@H](C(=O)NC(C)(C)C(=O)N[C@@H](Cc1c[nH]cn1)C(=O)N[C@@H](CC(C)C)C(N)=O)C(C)C` [SEQ ID: 11, Butanoyl-D-Phe-Gln-Trp-Ala-Val-Aib-His-Leu-NH2] (Butyryl-[dF]QWAV[Aib]HL-NH2)?
Percentage cytotoxicity (HBL 100 (Breast); HBL100, 10 pM): 18.2 ± 1.1%; Percentage cytotoxicity (HBL 100 (Breast); HBL100, 100 pM): 15.4 ± 4.1%; Percentage cytotoxicity (HBL 100 (Breast); HBL100, 1 nM): 24.3 ± 1.6%; Percentage cytotoxicity (HBL 100 (Breast); HBL100, 10 nM): 29.9 ± 0.3%; Percentage cytotoxicity (HBL 100 (Breast); HBL100, 100 nM): 22.7 ± 0.5%; Percentage cytotoxicity (HBL 100 (Breast); HBL100, 1 μM): 24.5 ± 0.8%; Percentage cytotoxicity (SW620 (colon); SW620, 10 pM): 20.4 ± 0.3%; Percentage cytotoxicity (SW620 (colon); SW620, 100 pM): 25.9 ± 3.8%; Percentage cytotoxicity (SW620 (colon); SW620, 1 nM): 35.1 ± 2.2%; Percentage cytotoxicity (SW620 (colon); SW620, 10 nM): 31.5 ± 2.6%; Percentage cytotoxicity (SW620 (colon); SW620, 100 nM): 21.0 ± 1.5%; Percentage cytotoxicity (SW620 (colon); SW620, 1 μM): 23.7 ± 1.4%; Percentage cytotoxicity (KB (oral squamous); 10 pM): 21.6 ± 3.7%; Percentage cytotoxicity (KB (oral squamous); 100 pM): 26.7 ± 5.1%; Percentage cytotoxicity (KB (oral squamous); 1 nM): 33.1 ± 2.1%; Percentage cytotoxicity (KB (oral squamous); 10 nM): 31.9 ± 3.1%; Percentage cytotoxicity (KB (oral squamous); 100 nM): 31.9 ± 2.1%; Percentage cytotoxicity (KB (oral squamous); 1 μM): 24.2 ± 1.2%; Percentage cytotoxicity (HuTu80 (Stomach); HuTu80, 10 pM): 17.6 ± 1.6%; Percentage cytotoxicity (HuTu80 (Stomach); HuTu80, 100 pM): 22.6 ± 3.9%; Percentage cytotoxicity (HuTu80 (Stomach); HuTu80, 1 nM): 30.5 ± 4.1%; Percentage cytotoxicity (HuTu80 (Stomach); HuTu80, 10 nM): 27.3 ± 2.7%; Percentage cytotoxicity (HuTu80 (Stomach); HuTu80, 100 nM): 20.0 ± 3.1%; Percentage cytotoxicity (HuTu80 (Stomach); HuTu80, 1 μM): 14.2 ± 0.1%; Percentage cytotoxicity (PTC (colon); 10 pM): 19.7 ± 0.6%; Percentage cytotoxicity (PTC (colon); 100 pM): 28.3 ± 0.8%; Percentage cytotoxicity (PTC (colon); 1 nM): 28.5 ± 2.8%; Percentage cytotoxicity (PTC (colon); 10 nM): 25.7 ± 4.1%; Percentage cytotoxicity (PTC (colon); 100 nM): 25.8 ± 2.5%; Percentage cytotoxicity (PTC (colon); 1 μM): 18.6 ± 1.5%; Percentage cytotoxicity (HeP2 (laryngeal); HeP2, 10 pM): 15.1 ± 0.3%; Percentage cytotoxicity (HeP2 (laryngeal); HeP2, 100 pM): 20.1 ± 0.0%; Percentage cytotoxicity (HeP2 (laryngeal); HeP2, 1 nM): 37.1 ± 3.3%; Percentage cytotoxicity (HeP2 (laryngeal); HeP2, 10 nM): 34.6 ± 2.2%; Percentage cytotoxicity (HeP2 (laryngeal); HeP2, 100 nM): 23.9 ± 1.1%; Percentage cytotoxicity (HeP2 (laryngeal); HeP2, 1 μM): 21.9 ± 2.1%; Percentage cytotoxicity (L132 (Lung); L132, 10 pM): 0.5 ± 0.0%; Percentage cytotoxicity (L132 (Lung); L132, 100 pM): 18.3 ± 0.9%; Percentage cytotoxicity (L132 (Lung); L132, 1 nM): 29.4 ± 0.4%; Percentage cytotoxicity (L132 (Lung); L132, 10 nM): 30.4 ± 0.4%; Percentage cytotoxicity (L132 (Lung); L132, 100 nM): 20.4 ± 1.5%; Percentage cytotoxicity (L132 (Lung); L132, 1 μM): 1.4 ± 1.1%; Percentage cytotoxicity (U87MG (Glioblastoma); 10 pM): 21.9 ± 2.1%; Percentage cytotoxicity (U87MG (Glioblastoma); 100 pM): 26.5 ± 2.6%; Percentage cytotoxicity (U87MG (Glioblastoma); 1 nM): 24.2 ± 1.7%; Percentage cytotoxicity (U87MG (Glioblastoma); 10 nM): 20.0 ± 0.0%; Percentage cytotoxicity (U87MG (Glioblastoma); 100 nM): 15.5 ± 0.6%; Percentage cytotoxicity (U87MG (Glioblastoma); 1 μM): 1.0 ± 0.1%

How did the Percentage cytotoxicity (HBL 100 (Breast); HBL100, 10 pM) turn out when `CCCCCCCC(=O)N[C@H](Cc1ccccc1)C(=O)N[C@@H](CCC(N)=O)C(=O)N[C@@H](Cc1c[nH]c2ccccc12)C(=O)N[C@@H](C)C(=O)N[C@H](C(=O)NC(C)(C)C(=O)N[C@@H](Cc1c[nH]cn1)C(=O)N[C@@H](CC(C)C)C(N)=O)C(C)C` [SEQ ID: 12, Octanoyl-D-Phe-Gln-Trp-Ala-Val-Aib-His-Leu-NH2] (Octanoyl-[dF]QWAV[Aib]HL-NH2) was run?
Its Percentage cytotoxicity is 29.0 ± 3.8%.

What about the Percentage cytotoxicity (HBL 100 (Breast); HBL100, 100 pM) of the same compound?
The Percentage cytotoxicity was 34.7 ± 2.8%.

What about the Percentage cytotoxicity (HBL 100 (Breast); HBL100, 1 nM) of the same compound?
The Percentage cytotoxicity was 29.6 ± 0.4%.

And the Percentage cytotoxicity (HBL 100 (Breast); HBL100, 10 nM)?
Its Percentage cytotoxicity is 27.7 ± 1.5%.

And the Percentage cytotoxicity (HBL 100 (Breast); HBL100, 100 nM)?
Its Percentage cytotoxicity is 23.6 ± 2.7%.

What about the Percentage cytotoxicity (HBL 100 (Breast); HBL100, 1 μM) of the same compound?
The Percentage cytotoxicity was 11.8 ± 1.1%.

And the Percentage cytotoxicity (SW620 (colon); SW620, 10 pM)?
Its Percentage cytotoxicity is 34.8 ± 0.4%.

And the Percentage cytotoxicity (SW620 (colon); SW620, 100 pM)?
The Percentage cytotoxicity was 38.4 ± 2.8%.

What about the Percentage cytotoxicity (SW620 (colon); SW620, 1 nM) of the same compound?
The Percentage cytotoxicity was 32.2 ± 2.6%.

And the Percentage cytotoxicity (SW620 (colon); SW620, 10 nM)?
Its Percentage cytotoxicity is 36.1 ± 1.9%.

And the Percentage cytotoxicity (SW620 (colon); SW620, 100 nM)?
Its Percentage cytotoxicity is 25.3 ± 0.6%.

What about the Percentage cytotoxicity (SW620 (colon); SW620, 1 μM) of the same compound?
The Percentage cytotoxicity was 22.6 ± 1.1%.

What about the Percentage cytotoxicity (KB (oral squamous); 10 pM) of the same compound?
Its Percentage cytotoxicity is 19.3 ± 2.9%.

What about the Percentage cytotoxicity (KB (oral squamous); 100 pM) of the same compound?
The Percentage cytotoxicity was 19.4 ± 2.9%.

And the Percentage cytotoxicity (KB (oral squamous); 1 nM)?
Its Percentage cytotoxicity is 26.6 ± 4.9%.

What about the Percentage cytotoxicity (KB (oral squamous); 10 nM) of the same compound?
Its Percentage cytotoxicity is 18.6 ± 2.1%.

What about the Percentage cytotoxicity (KB (oral squamous); 100 nM) of the same compound?
Its Percentage cytotoxicity is 11.1 ± 3.1%.

And the Percentage cytotoxicity (KB (oral squamous); 1 μM)?
The Percentage cytotoxicity was 12.4 ± 1.2%.

And the Percentage cytotoxicity (HuTu80 (Stomach); HuTu80, 10 pM)?
The Percentage cytotoxicity was 8.3 ± 1.1%.

And the Percentage cytotoxicity (HuTu80 (Stomach); HuTu80, 100 pM)?
The Percentage cytotoxicity was 13.0 ± 0.7%.

What about the Percentage cytotoxicity (HuTu80 (Stomach); HuTu80, 1 nM) of the same compound?
Its Percentage cytotoxicity is 33.1 ± 4.8%.

And the Percentage cytotoxicity (HuTu80 (Stomach); HuTu80, 10 nM)?
The Percentage cytotoxicity was 23.4 ± 0.5%.

And the Percentage cytotoxicity (HuTu80 (Stomach); HuTu80, 100 nM)?
The Percentage cytotoxicity was 21.8 ± 2.1%.

What about the Percentage cytotoxicity (HuTu80 (Stomach); HuTu80, 1 μM) of the same compound?
Its Percentage cytotoxicity is 20.0 ± 3.9%.

What about the Percentage cytotoxicity (PTC (colon); 10 pM) of the same compound?
The Percentage cytotoxicity was 19.5 ± 0.8%.

What about the Percentage cytotoxicity (PTC (colon); 100 pM) of the same compound?
The Percentage cytotoxicity was 18.6 ± 2.4%.

What about the Percentage cytotoxicity (PTC (colon); 1 nM) of the same compound?
The Percentage cytotoxicity was 30.1 ± 4.1%.

And the Percentage cytotoxicity (PTC (colon); 10 nM)?
Its Percentage cytotoxicity is 20.7 ± 3.8%.

And the Percentage cytotoxicity (PTC (colon); 100 nM)?
Its Percentage cytotoxicity is 16.1 ± 2.5%.

And the Percentage cytotoxicity (PTC (colon); 1 μM)?
The Percentage cytotoxicity was 14.4 ± 2.7%.

What about the Percentage cytotoxicity (HeP2 (laryngeal); HeP2, 10 pM) of the same compound?
Its Percentage cytotoxicity is 10.0 ± 0.0%.

What about the Percentage cytotoxicity (HeP2 (laryngeal); HeP2, 100 pM) of the same compound?
The Percentage cytotoxicity was 24.4 ± 0.1%.

What about the Percentage cytotoxicity (HeP2 (laryngeal); HeP2, 1 nM) of the same compound?
Its Percentage cytotoxicity is 28.9 ± 0.5%.

What about the Percentage cytotoxicity (HeP2 (laryngeal); HeP2, 10 nM) of the same compound?
The Percentage cytotoxicity was 29.2 ± 1.1%.

And the Percentage cytotoxicity (HeP2 (laryngeal); HeP2, 100 nM)?
Its Percentage cytotoxicity is 25.6 ± 0.4%.

And the Percentage cytotoxicity (HeP2 (laryngeal); HeP2, 1 μM)?
The Percentage cytotoxicity was 28.7 ± 0.8%.

And the Percentage cytotoxicity (L132 (Lung); L132, 10 pM)?
Its Percentage cytotoxicity is 0.0 ± 0.0%.

And the Percentage cytotoxicity (L132 (Lung); L132, 100 pM)?
The Percentage cytotoxicity was 23.1 ± 0.7%.

And the Percentage cytotoxicity (L132 (Lung); L132, 1 nM)?
The Percentage cytotoxicity was 26.7 ± 0.4%.

What about the Percentage cytotoxicity (L132 (Lung); L132, 10 nM) of the same compound?
Its Percentage cytotoxicity is 26.4 ± 0.3%.

And the Percentage cytotoxicity (L132 (Lung); L132, 100 nM)?
The Percentage cytotoxicity was 22.0 ± 0.1%.

What about the Percentage cytotoxicity (L132 (Lung); L132, 1 μM) of the same compound?
The Percentage cytotoxicity was 22.2 ± 0.2%.

And the Percentage cytotoxicity (U87MG (Glioblastoma); 10 pM)?
The Percentage cytotoxicity was 13.1 ± 2.2%.

What about the Percentage cytotoxicity (U87MG (Glioblastoma); 100 pM) of the same compound?
Its Percentage cytotoxicity is 22.1 ± 3.8%.

What about the Percentage cytotoxicity (U87MG (Glioblastoma); 1 nM) of the same compound?
The Percentage cytotoxicity was 28.3 ± 1.9%.

What about the Percentage cytotoxicity (U87MG (Glioblastoma); 10 nM) of the same compound?
Its Percentage cytotoxicity is 27.5 ± 2.9%.

What about the Percentage cytotoxicity (U87MG (Glioblastoma); 100 nM) of the same compound?
The Percentage cytotoxicity was 13.1 ± 2.3%.

What about the Percentage cytotoxicity (U87MG (Glioblastoma); 1 μM) of the same compound?
Its Percentage cytotoxicity is 15.4 ± 3.1%.
